# In article PMC3481155, “AhR activation underlies the CYP1A autoinduction by A-998679 in rats” (Frontiers in Genetics, 2012):
# Assays:
# AhR [1] = tested on: AhR; set-up: method as in Jinno et al., 2006; details: ref Jinno et al., 2006, read-out: reporter assay EC50; cited from earlier work
# AhR [2] = tested on: AhR; set-up: method as in Nguyen and Bradfield, 2008; Mitchell and Elferink, 2009; details: ref Nguyen and Bradfield, 2008, Mitchell and Elferink, 2009; cited from earlier work
# [3] = molecular target: T1, aryl hydrocarbon receptor (AhR) (Homo sapiens, UniProt P35869); assay: AhR luciferase reporter assay in HepG2 cells; format: cell-based
# T1 construct: endogenous in cells; host or cells: HepG2
# T1 sequence (P35869 11-848): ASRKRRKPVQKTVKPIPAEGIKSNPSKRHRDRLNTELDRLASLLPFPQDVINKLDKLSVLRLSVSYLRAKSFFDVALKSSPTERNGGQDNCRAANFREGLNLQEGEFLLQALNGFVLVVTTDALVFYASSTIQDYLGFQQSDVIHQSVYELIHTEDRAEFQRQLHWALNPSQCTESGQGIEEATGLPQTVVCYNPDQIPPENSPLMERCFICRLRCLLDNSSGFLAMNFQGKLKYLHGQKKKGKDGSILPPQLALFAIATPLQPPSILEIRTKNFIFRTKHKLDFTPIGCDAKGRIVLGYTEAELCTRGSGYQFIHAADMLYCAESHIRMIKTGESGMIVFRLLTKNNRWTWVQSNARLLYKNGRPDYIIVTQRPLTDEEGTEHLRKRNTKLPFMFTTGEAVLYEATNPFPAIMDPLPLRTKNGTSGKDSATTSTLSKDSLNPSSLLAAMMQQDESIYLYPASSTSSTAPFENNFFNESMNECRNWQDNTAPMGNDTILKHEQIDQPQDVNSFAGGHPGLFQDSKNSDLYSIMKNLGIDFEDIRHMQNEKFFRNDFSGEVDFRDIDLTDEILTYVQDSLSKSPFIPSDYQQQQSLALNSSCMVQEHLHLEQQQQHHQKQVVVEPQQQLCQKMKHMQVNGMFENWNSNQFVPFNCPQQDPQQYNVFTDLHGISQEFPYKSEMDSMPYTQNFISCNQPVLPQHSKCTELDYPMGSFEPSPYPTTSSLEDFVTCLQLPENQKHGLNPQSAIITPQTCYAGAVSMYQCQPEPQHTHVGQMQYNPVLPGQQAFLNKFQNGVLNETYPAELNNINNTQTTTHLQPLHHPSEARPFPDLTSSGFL
# Method: HepG2 cells were transiently transfected overnight with the construct (1200 bp portion of the human CYP1A1 promoter region containing 2 copies of the functional consensus sequence for the DRE in luc2P luciferase vector (SwitchGear Genomics cat# 114555, Menlo Park, CA) using lipofectin (Invitrogen Life Technologies) at 500 ng construct per million cells. Following transfection, the cells were replated in a 96-well format and dosed for 24 h with 0.1% (v/v) DMSO vehicle, 3-MC at 0.05, 0.1, 0.5, 1, 5, 10 μM, and A-998679 at 1.5625, 3.125, 6.25, 12.5, 25, and 50 μM. Luminescence signal was generated using the Dual-Luciferase Reporter Assay System (Promega, Madison, WI) and detected with a Tecan Genios Pro reader (Männedorf, Switzerland).
# AhR [4] = molecular target: T2, AhR (Homo sapiens, UniProt P35869); assay: AhR nuclear translocation assay in HepG2 cells; format: cell-based; details: 2 μM
# T2 construct: endogenous in cells; host or cells: HepG2
# T2 sequence (P35869 11-848): T1 sequence (P35869 11-848)
# Method: HepG2 cells were plated in Lab-Tek II Chamber slides (Nalgene, Rochester, NY) at a seeding density of 50,000 cells/well. The cells were allowed to attach overnight and were treated for 2 h or 24 h with 10 or 40 μM A-998679, 2 μM 3-methylchloranthrene (3-MC) as a positive control, or 0.1% (v/v) DMSO vehicle. The cells were fixed in fresh 3% paraformaldehyde solution in PBS followed by a PBS wash, and were then permeabilized for 5 min using 0.2% Triton X-100 in PBS followed by another PBS wash. The cells were then incubated with blocking buffer consisting of 1% BSA/PBS solutions and immediately incubated with a 1:50 dilution of rabbit polyclonal antibody to AhR (Abcam, Cambridge, MA catalog# 63636) for 1 h at 37°C. Cells were then washed with PBS, re-blocked for 10 min, and stained with an Alexa 546 donkey anti-rabbit secondary antibody (diluted 1:200; Invitrogen Life Technologies) for 45 min at 37°C. The cells were then washed with PBS, stained with 0.5 μM Hoescht solution for 15 min, and again washed with PBS. The chamber slides were sealed and examined under the microscope. Images were acquired with a SPOT RT SE digital camera (Diagnostic Instruments, Sterling Heights, MI) mounted on a Leica (Wetzlar, Germany) DMIRE inverted florescence microscope using a 20× objective. Image acquisition was done using Metamorph® software (Molecular Devices, Sunnyvale, CA) and percent translocation of the AhR probe was quantitated using MetaXpress (Molecular Devices). Twenty microscope fields were evaluated per well (~3000–6000 cells/well).
smiles,measurement,setting,value
C[C@]12CCc3c(ccc4cc(O)ccc34)[C@@H]1CCC2=O [equilenin],EC50,AhR [1],~10 µM
"Clc1cc2c(cc1Cl)Oc1cc(Cl)c(Cl)cc1O2 [TCDD, 2,3,7,8-Tetrachlorodibenzo-p-dioxin]",binding EC50,AhR [2],~ pM to nM range
"Cc1ccc2cc3c(ccc4ccccc43)c3c2c1CC3 [3MC, 3-methylcholanthrene, reference compound]",potency to activate AhR relative to A-998679,[3]; luciferase reporter,~ 8 fold
same,EC50,"[3]; luciferase reporter with human DRE construct, 24 h, read-out: EC50, activation of AhR signaling",2.1 µM
same,maximal increase over vehicle,"[3]; luciferase reporter, 24 h",97 fold
same,AhR nuclear staining (% positive cells) 2 h,"AhR [4]; 2 h, vehicle 15.6",26.3 % positive cells
same,AhR nuclear staining (% positive cells) 24 h,"AhR [4]; 24 h, vehicle 3.4",11.1 % positive cells
